Target: human Cat S (Homo sapiens, UniProt P25774)
Experiment: Cathepsin enzyme inhibition assay (fluorogenic peptide substrate cleavage)
Assay type: biochemical
Conditions: human Cat S 1 nM; substrate Z-Val-Val-Arg-AMC 20 μM; pH 6.5; fluorescence over 20 minutes
In short: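 Fluorogenic cleavage of Z-Val-Val-Arg-AMC (20 μM) by 1 nM enzyme in 100 mM potassium phosphate pH 6.5, 5 mM EDTA, 5 mM DTT, 0.001% Triton X-100. Reaction started with substrate; fluorescence (ex 360/em 465 nm) followed over 20 minutes. IC50 by standard methods.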

Sequence of human Cat S (P25774 115-331): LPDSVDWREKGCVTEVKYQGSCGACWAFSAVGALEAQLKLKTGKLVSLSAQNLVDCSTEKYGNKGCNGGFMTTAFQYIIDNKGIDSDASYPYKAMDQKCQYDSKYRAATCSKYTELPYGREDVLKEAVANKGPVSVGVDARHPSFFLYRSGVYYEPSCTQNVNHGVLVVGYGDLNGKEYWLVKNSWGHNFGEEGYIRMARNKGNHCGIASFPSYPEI

| SMILES | IC50 [nM] |
| --- | --- |
| COCCOc1ccc(S(=O)(=O)[C@@H]2C[C@@H](C(=O)NC3(C#N)CC3)[C@H](C(=O)N3CC(F)(F)C3)C2)c(Cl)c1 [Example 168, (1R,2R,4R)-4-[2-Chloro-4-(2-methoxy-ethoxy)-benzenesulfonyl]-2-(3,3-difluoro-azetidine-1-carbonyl)-cyclopentanecarboxylic acid (1-cyano-cyclopropyl)-amide] | 1.27 |
| N#CC1(NC(=O)[C@@H]2C[C@@H](S(=O)(=O)c3ccc(F)cc3Cl)C[C@H]2C(=O)N2CCC(F)(F)C2)CC1 [Example 186, (1R,2R,4R)-4-(2-Chloro-4-fluoro-benzenesulfonyl)-2-(3,3-difluoro-pyrrolidine-1-carbonyl)-cyclopentanecarboxylic acid (1-cyano-cyclopropyl)-amide] | 2.15 |
| N#CC1(NC(=O)[C@@H]2C[C@@H](S(=O)(=O)c3ccc(Br)cc3Cl)C[C@H]2C(=O)N2CCC(F)(F)C2)CC1 [Example 187, (1R,2R,4R)-4-(4-Bromo-2-chloro-benzenesulfonyl)-2-(3,3-difluoro-pyrrolidine-1-carbonyl)-cyclopentanecarboxylic acid (1-cyano-cyclopropyl)-amide] | 1.07 |
| N#CC1(NC(=O)[C@@H]2C[C@@H](S(=O)(=O)c3cccc(Br)c3)C[C@H]2C(=O)N2CCC(F)(F)C2)CC1 [Example 188, (1R,2R,4R)-4-(3-Bromo-benzenesulfonyl)-2-(3,3-difluoro-pyrrolidine-1-carbonyl)-cyclopentanecarboxylic acid (1-cyano-cyclopropyl)-amide] | 0.985 |
| N#CC1(NC(=O)[C@@H]2C[C@@H](S(=O)(=O)c3ccc(OCC(F)(F)F)cc3Cl)C[C@H]2C(=O)N2CCC(F)(F)C2)CC1 [Example 189, (1R,2R,4R)-4-[2-Chloro-4-(2,2,2-trifluoro-ethoxy)-benzenesulfonyl]-2-(3,3-difluoro-pyrrolidine-1-carbonyl)-cyclopentanecarboxylic acid (1-cyano-cyclopropyl)-amide] | 0.675 |
| C[C@H](Oc1ccc(S(=O)(=O)[C@@H]2C[C@@H](C(=O)NC3(C#N)CC3)[C@H](C(=O)N3CCC(F)(F)C3)C2)c(Cl)c1)C(F)(F)F [Example 190, (1R,2R,4R)-4-[2-Chloro-4-((S)-2,2,2-trifluoro-1-methyl-ethoxy)-benzenesulfonyl]-2-(3,3-difluoro-pyrrolidine-1-carbonyl)-cyclopentanecarboxylic acid (1-cyano-cyclopropyl)-amide] | 0.84 |
| N#CC1(NC(=O)[C@@H]2C[C@@H](S(=O)(=O)c3ccc(N4CCN(C5CC5)CC4)cc3Cl)C[C@H]2C(=O)N2CCC(F)(F)C2)CC1 [Example 191, (1R,2R,4R)-4-[2-Chloro-4-(4-cyclopropyl-piperazin-1-yl)-benzenesulfonyl]-2-(3,3-difluoro-pyrrolidine-1-carbonyl)-cyclopentanecarboxylic acid (1-cyano-cyclopropyl)-amide] | 0.575 |
| Cc1ccc(S(=O)(=O)[C@@H]2C[C@@H](C(=O)NC3(C#N)CC3)[C@H](C(=O)N3CCC(F)(F)C3)C2)c(Cl)c1 [Example 200, (1R,2R,4R)-4-(2-Chloro-4-methyl-benzenesulfonyl)-2-(3,3-difluoro-pyrrolidine-1-carbonyl)-cyclopentanecarboxylic acid (1-cyano-cyclopropyl)-amide] | 0.445 |
| Cn1cc(-c2cccc(S(=O)(=O)[C@@H]3C[C@@H](C(=O)NC4(C#N)CC4)[C@H](C(=O)N4CCC(F)(F)C4)C3)c2)cn1 [Example 202, (1R,2R,4R)-2-(3,3-Difluoro-pyrrolidine-1-carbonyl)-4-[3-(1-methyl-1H-pyrazol-4-yl)-benzenesulfonyl]-cyclopentanecarboxylic acid (1-cyano-cyclopropyl)-amide] | 0.38 |
| CC(=O)N1CCN(c2ccc(S(=O)(=O)[C@@H]3C[C@@H](C(=O)NC4(C#N)CC4)[C@H](C(=O)N4CCC(F)(F)C4)C3)c(Cl)c2)CC1 [Example 208, (1R,2R,4R)-4-[4-(4-Acetyl-piperazin-1-yl)-2-chloro-benzenesulfonyl]-2-(3,3-difluoro-pyrrolidine-1-carbonyl)-cyclopentanecarboxylic acid (1-cyano-cyclopropyl)-amide] | 1.45 |
| CC(=O)N1CCN(c2ccc(S(=O)(=O)[C@H]3C[C@@H](C(=O)NC4(C#N)CC4)[C@H](C(=O)N4CCC(F)(F)C4)C3)c(Cl)c2)CC1 [Example 209, (1R,2R,4S)-4-[4-(4-Acetyl-piperazin-1-yl)-2-chloro-benzenesulfonyl]-2-(3,3-difluoro-pyrrolidine-1-carbonyl)-cyclopentanecarboxylic acid (1-cyano-cyclopropyl)-amide] | 0.54 |
| N#CC1(NC(=O)[C@@H]2C[C@@H](S(=O)(=O)c3ccc(Cl)cn3)C[C@H]2C(=O)N2CCC(F)(F)C2)CC1 [Example 225, (1R,2R,4R)-4-(5-Chloro-pyridine-2-sulfonyl)-2-(3,3-difluoro-pyrrolidine-1-carbonyl)-cyclopentanecarboxylic acid (1-cyano-cyclopropyl)-amide] | 0.38 |
| N#CC1(NC(=O)[C@@H]2C[C@H](S(=O)(=O)c3ccc(Cl)cn3)C[C@H]2C(=O)N2CCC(F)(F)C2)CC1 [Example 226, (1R,2R,4S)-4-(5-Chloro-pyridine-2-sulfonyl)-2-(3,3-difluoro-pyrrolidine-1-carbonyl)-cyclopentanecarboxylic acid (1-cyano-cyclopropyl)-amide] | 50 |
| N#CC1(NC(=O)[C@@H]2C[C@@H](S(=O)(=O)c3ccccn3)C[C@H]2C(=O)N2CCC(F)(F)C2)CC1 [Example 227, (1R,2R,4R)-2-(3,3-Difluoro-pyrrolidine-1-carbonyl)-4-(pyridine-2-sulfonyl)-cyclopentanecarboxylic acid (1-cyano-cyclopropyl)-amide] | 0.555 |
| N#CC1(NC(=O)[C@@H]2C[C@H](S(=O)(=O)c3ccccn3)C[C@H]2C(=O)N2CCC(F)(F)C2)CC1 [Example 228, (1R,2R,4S)-2-(3,3-Difluoro-pyrrolidine-1-carbonyl)-4-(pyridine-2-sulfonyl)-cyclopentanecarboxylic acid (1-cyano-cyclopropyl)-amide] | 91 |

Stronger by IC50, values ahead:

| IC50 [nM] | SMILES |
| --- | --- |
| 0.155 | CC(C)(C)N1CCN(c2ccc(S(=O)(=O)[C@@H]3C[C@@H](C(=O)NC4(C#N)CC4)[C@H](C(=O)N4CCC(F)(F)C4)C3)c(Cl)c2)CC1 [Example 192, (1R,2R,4R)-4-[4-(4-tert-Butyl-piperazin-1-yl)-2-chloro-benzenesulfonyl]-2-(3,3-difluoro-pyrrolidine-1-carbonyl)-cyclopentanecarboxylic acid (1-cyano-cyclopropyl)-amide] |
| 0.215 | Cn1nccc1-c1ccc(S(=O)(=O)[C@@H]2C[C@@H](C(=O)NC3(C#N)CC3)[C@H](C(=O)N3CCC(F)(F)C3)C2)c(Cl)c1 [Example 196, (1R,2R,4R)-4-[2-Chloro-4-(2-methyl-2H-pyrazol-3-yl)-benzenesulfonyl]-2-(3,3-difluoro-pyrrolidine-1-carbonyl)-cyclopentanecarboxylic acid (1-cyano-cyclopropyl)-amide] |
| 0.14 | Cn1cc(-c2ccc(S(=O)(=O)[C@@H]3C[C@@H](C(=O)NC4(C#N)CC4)[C@H](C(=O)N4CCC(F)(F)C4)C3)c(Cl)c2)cn1 [Example 197, (1R,2R,4R)-4-[2-Chloro-4-(1-methyl-1H-pyrazol-4-yl)-benzenesulfonyl]-2-(3,3-difluoro-pyrrolidine-1-carbonyl)-cyclopentanecarboxylic acid (1-cyano-cyclopropyl)-amide] |
| 0.135 | Cc1cc(-c2ccc(S(=O)(=O)[C@@H]3C[C@@H](C(=O)NC4(C#N)CC4)[C@H](C(=O)N4CCC(F)(F)C4)C3)c(Cl)c2)ccn1 [Example 198, (1R,2R,4R)-4-[2-Chloro-4-(2-methyl-pyridin-4-yl)-benzenesulfonyl]-2-(3,3-difluoro-pyrrolidine-1-carbonyl)-cyclopentanecarboxylic acid (1-cyano-cyclopropyl)-amide] |
| 0.135 | N#CC1(NC(=O)[C@@H]2C[C@@H](S(=O)(=O)c3ccc(-c4ccnc(Cl)c4)cc3Cl)C[C@H]2C(=O)N2CCC(F)(F)C2)CC1 [Example 199, (1R,2R,4R)-4-[2-Chloro-4-(2-chloro-pyridin-4-yl)-benzenesulfonyl]-2-(3,3-difluoro-pyrrolidine-1-carbonyl)-cyclopentanecarboxylic acid (1-cyano-cyclopropyl)-amide] |
| 0.34 | Cn1nccc1-c1cccc(S(=O)(=O)[C@@H]2C[C@@H](C(=O)NC3(C#N)CC3)[C@H](C(=O)N3CCC(F)(F)C3)C2)c1 [Example 201, (1R,2R,4R)-2-(3,3-Difluoro-pyrrolidine-1-carbonyl)-4-[3-(2-methyl-2H-pyrazol-3-yl)-benzenesulfonyl]-cyclopentanecarboxylic acid (1-cyano-cyclopropyl)-amide] |
| 0.195 | Cc1cc(-c2cccc(S(=O)(=O)[C@@H]3C[C@@H](C(=O)NC4(C#N)CC4)[C@H](C(=O)N4CCC(F)(F)C4)C3)c2)ccn1 [Example 203, (1R,2R,4R)-2-(3,3-Difluoro-pyrrolidine-1-carbonyl)-4-[3-(2-methyl-pyridin-4-yl)-benzenesulfonyl]-cyclopentanecarboxylic acid (1-cyano-cyclopropyl)-amide] |
| 0.135 | N#CC1(NC(=O)[C@@H]2C[C@@H](S(=O)(=O)c3cccc(-c4ccnc(Cl)c4)c3)C[C@H]2C(=O)N2CCC(F)(F)C2)CC1 [Example 204, (1R,2R,4R)-4-[3-(2-Chloro-pyridin-4-yl)-benzenesulfonyl]-2-(3,3-difluoro-pyrrolidine-1-carbonyl)-cyclopentanecarboxylic acid (1-cyano-cyclopropyl)-amide] |
| 0.325 | Cc1cccc(S(=O)(=O)[C@@H]2C[C@@H](C(=O)NC3(C#N)CC3)[C@H](C(=O)N3CCC(F)(F)C3)C2)c1 [Example 205, (1R,2R,4R)-2-(3,3-Difluoro-pyrrolidine-1-carbonyl)-4-(toluene-3-sulfonyl)-cyclopentanecarboxylic acid (1-cyano-cyclopropyl)-amide] |
